In US8916570B2 (The United States of America, as represented by the …, priority 2008, dated 2014):

How the values were obtained:
[1] = target: T1, hA1AR (Homo sapiens, UniProt P30542); experiment: Binding at hA1AR, CHO membranes (Example 7); conditions: read-out: % inhibition hA1
T1 construct: expressed in transfected cells; host or cells: CHO
T1 sequence (P30542 1-326): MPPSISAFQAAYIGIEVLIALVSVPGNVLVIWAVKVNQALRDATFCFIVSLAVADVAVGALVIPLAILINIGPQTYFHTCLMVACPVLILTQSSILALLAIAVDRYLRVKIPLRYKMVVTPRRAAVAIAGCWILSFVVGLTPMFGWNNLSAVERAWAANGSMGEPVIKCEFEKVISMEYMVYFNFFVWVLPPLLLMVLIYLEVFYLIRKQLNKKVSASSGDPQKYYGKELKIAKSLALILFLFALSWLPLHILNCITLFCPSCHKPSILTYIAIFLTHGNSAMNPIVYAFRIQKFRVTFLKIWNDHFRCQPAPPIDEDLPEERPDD

[2] = target: T2, hA3AR (Homo sapiens, UniProt P0DMS8); experiment: Binding at hA3AR, CHO membranes (Example 7); conditions: read-out: Affinity (Ki, nM) hA3
T2 construct: expressed in transfected cells; host or cells: CHO
T2 sequence (P0DMS8 1-318): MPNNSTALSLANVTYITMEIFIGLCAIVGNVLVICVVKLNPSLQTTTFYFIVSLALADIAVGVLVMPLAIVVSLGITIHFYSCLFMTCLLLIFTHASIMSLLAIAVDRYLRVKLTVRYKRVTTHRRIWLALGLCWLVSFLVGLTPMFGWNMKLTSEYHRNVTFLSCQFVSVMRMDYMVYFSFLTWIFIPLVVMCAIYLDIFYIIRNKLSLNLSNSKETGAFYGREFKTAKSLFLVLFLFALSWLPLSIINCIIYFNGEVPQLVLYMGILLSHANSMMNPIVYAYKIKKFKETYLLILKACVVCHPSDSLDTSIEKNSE

[3] = target: T3, hA2AAR (Homo sapiens, UniProt P29274); experiment: Binding at hA2AAR, HEK-293 membranes (Example 7); conditions: for inhibition at 10 µM: read-out: % inhibition hA2A
T3 construct: expressed in transfected cells
Description: After harvesting, cells were homogenized and suspended in PBS.
Nonspecific binding was determined using a final concentration of 10 μM 51 diluted with the buffer.

T3 sequence (P29274 whole entry): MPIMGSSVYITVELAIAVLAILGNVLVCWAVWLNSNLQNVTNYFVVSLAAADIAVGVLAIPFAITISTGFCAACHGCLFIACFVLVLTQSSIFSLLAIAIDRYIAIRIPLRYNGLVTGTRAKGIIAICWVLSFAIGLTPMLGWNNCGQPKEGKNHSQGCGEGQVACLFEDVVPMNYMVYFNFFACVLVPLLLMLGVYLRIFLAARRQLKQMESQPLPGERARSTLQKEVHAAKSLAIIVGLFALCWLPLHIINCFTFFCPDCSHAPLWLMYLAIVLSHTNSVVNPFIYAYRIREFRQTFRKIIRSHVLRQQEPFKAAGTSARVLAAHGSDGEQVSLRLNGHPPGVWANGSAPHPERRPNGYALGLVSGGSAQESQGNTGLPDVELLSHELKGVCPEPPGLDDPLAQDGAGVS

Row | inhibition at 10 µM [1] [%] | Ki [2] [nM] | Ki ([3]; read-out: Affinity (Ki, nM) hA2A) [nM] | inhibition at 10 µM [3] [%] | Compound
1 | 0 | 1.95 | 1620 | – | CNC(=O)[C@@]12C[C@@H]1[C@@H](n1cnc3c(NCc4cccc(Cl)c4)nc(C#Cc4cccc(Cl)c4)nc31)[C@H](O)[C@@H]2O [Compound 330, (1S,2R,3S,4R,5S)-4-(6-(3-Chlorobenzylamino)-2-((3-chlorophenyl)ethynyl)-9H-purin-9-yl)-2,3-dihydroxy-N-methylbicyclo[3.1.0]hexane-1-carboxamide]
2 | 18 | – | – | 14 | CNC(=O)[C@@]12C[C@@H]1[C@@H](n1cnc3c(NC)nc(C#Cc4ccccc4)nc31)[C@H](O)[C@@H]2O [Compound 309, (1S,2R,3S,4R,5S)-2,3-Dihydroxy-N-methyl-4-(6-(methylamino)-2-(phenylethynyl)-9H-purin-9-yl)bicyclo[3.1.0]hexane-1-carboxamide]
3 | 16 | 1.07 ± 0.14 | – | 19 | CNC(=O)[C@@]12C[C@@H]1[C@@H](n1cnc3c(NC)nc(C#Cc4cccc(N)c4)nc31)[C@H](O)[C@@H]2O [Compound 318, (1S,2R,3S,4R,5S)-4-(2-((3-Aminophenyl)ethynyl)-6-(methylamino)-9H-purin-9-yl)-2,3-dihydroxy-N-methylbicyclo[3.1.0]hexane-1-carboxamide]
4 | 13 | 1.22 ± 0.31 | – | 30 | CNC(=O)[C@@]12C[C@@H]1[C@@H](n1cnc3c(NC)nc(C#Cc4ccc(Cl)cc4)nc31)[C@H](O)[C@@H]2O [Compound 316, (1S,2R,3S,4R,5S)-4-(2-((4-Chlorophenyl)ethynyl)-6-(methylamino)-9H-purin-9-yl)-2,3-dihydroxy-N-methylbicyclo[3.1.0]hexane-1-carboxamide]
5 | 1 | 6.75 ± 2.78 | – | 38 | CNC(=O)[C@@]12C[C@@H]1[C@@H](n1cnc3c(NCc4cccc(Cl)c4)nc(C#Cc4cccc(C(=O)O)c4)nc31)[C@H](O)[C@@H]2O [Compound 333, 3-((6-(3-Chlorobenzylamino)-9-((1S,2R,3S,4R,5S)-3,4-dihydroxy-5-(methylcarbamoyl)bicyclo[3.1.0]hexan-2-yl)-9H-purin-2-yl)ethynyl)benzoic acid]
6 | 6 | 1.66 ± 0.36 | – | 47 | CNC(=O)[C@@]12C[C@@H]1[C@@H](n1cnc3c(NC)nc(C#Cc4cc(F)cc(F)c4)nc31)[C@H](O)[C@@H]2O [Compound 320, (1S,2R,3S,4R,5S)-4-(2-((3,5-Difluorophenyl)ethynyl)-6-(methylamino)-9H-purin-9-yl)-2,3-dihydroxy-N-methylbicyclo[3.1.0]hexane-1-carboxamide]
7 | 14 | 3.78 ± 1.16 | – | 38 | CCc1ccc(C#Cc2nc(NC)c3ncn([C@H]4[C@H](O)[C@H](O)[C@]5(C(=O)NC)C[C@H]45)c3n2)cc1 [Compound 321, (1S,2R,3S,4R,5S)-4-(2-((4-Ethylphenyl)ethynyl)-6-(methylamino)-9H-purin-9-yl)-2,3-dihydroxy-N-methylbicyclo[3.1.0]hexane-1-carboxamide]
8 | 13 | – | – | 13 | CNC(=O)[C@@]12C[C@@H]1[C@@H](n1cnc3c(NC)nc(C#Cc4ccccn4)nc31)[C@H](O)[C@@H]2O [Compound 310, (1S,2R,3S,4R,5S)-2,3-Dihydroxy-N-methyl-4-(6-(methylamino)-2-(pyridin-2-ylethynyl)-9H-purin-9-yl)bicyclo[3.1.0]hexane-1-carboxamide]
9 | 3 | – | – | 41 | CNC(=O)[C@@]12C[C@@H]1[C@@H](n1cnc3c(NCc4cccc(Cl)c4)nc(C#Cc4ccc(F)c(F)c4)nc31)[C@H](O)[C@@H]2O [Compound 331, (1S,2R,3S,4R,5S)-4-(6-(3-Chlorobenzylamino)-2-((3,4-difluorophenyl)ethynyl)-9H-purin-9-yl)-2,3-dihydroxy-N-methylbicyclo[3.1.0]hexane-1-carboxamide]
